# According to patent US20050136126A1, “Agent for reduction of scar formation by using wound alkalinization” (CambridgeMED, Inc., priority 2003, published 2005):
# Where two headings read alike, the source gives them in different places.
# Assays:
# [1] = Excerpt: Regarding concentrations and amounts of the various reagents, please refer to Tables 1 and 2 below: […]
# [2] = system: incised wound on the dorsum of adult white rats; conditions: for deposited collagen (amount, appearance) / collagen fibers (density, structure) vs normal dermis: Trichrome dyeing
# Procedure: On the dorsum of adult white rats, skin near the limbs which are on the same distance from the median line was incised in about 10 mm long. In a sham control group, 0.1 cc distilled water was injected to the dermis of the incised wound and simply sutured.
# On 14th and 56th days from the experiments, tissues of ten adult white rats were taken, fixed in 10% neutral buffer formalin for 24 hours, embedded in paraffin throughout the normal tissue treating process.
# With a tissue sample, which was cut perpendicularly to the middle of the wound, the width of the scar by use of image analysis program (Image-Pro version 3.0, Microsoft) under 40 magnification was measured, and the differences between the groups were compared. The result of the measurement was confirmed by Student t-test.
# On the dorsum of adult white rats, skin near the limbs which are on the same distance from the median line was incised in about 10 mm long. After incision, the control group was simply sutured.
# TGF-β = test: Experiment of TGF-β inactivation: histology and width of scar after TGF-β injection into incised wound; type: in vivo, bovine; conditions: 8 weeks; Trichrome dyeing
# [3] = 2 weeks, hematoxylin-eosin dyeing, ×40
Molecule,pH value ([1]; 0.05 mEq),pH value ([1]; 0.1 mEq),pH value ([1]; 0.5 mEq),pH value ([1]; 1.0 mEq),"degree of deposition of inflammatory cells vs control group [2, 3]","width of the scar vs control group (histological observation) [2, 3]","scar appearance ([2]; 8 weeks, hematoxylin-eosin dyeing, ×40)","fibroblast cells ([2]; 8 weeks, hematoxylin-eosin dyeing, ×400)","deposited collagen (amount, appearance) ([2]; 2 weeks)","collagen fibers (density, structure) vs normal dermis ([2]; 8 weeks)","collagen fibers (density, structure) vs normal dermis (TGF-β)"
O=C([O-])O.[Na+] [sodium bicarbonate],8.83,9.22,9.82,10.36,not much difference,thinner than that of the control group,thin and unnoticeable scar,Not many of the fibroblast cells were found,,,
"[K+].[OH-] [KOH, potassium hydroxide]",8.56,9.40,9.74,10.51,,thinner than that of the control group,,,meager compared to that of the control group,not different from that of the normal dermis nearby,
TGF-β,,,,,,,,,,,clearly showed the scar
"[Na+].[OH-] [NaOH, sodium hydroxide]",8.55,9.38,9.87,10.50,,thinner than that of the control group,,,meager compared to that of the control group,not different from that of the normal dermis nearby,
